Measured values reported in PMC4100786 (Biochemistry, 2014).

Target: ISWI (Xenopus laevis, UniProt Q9DF71)
Format: binding

Chain of ISWI (Q9DF71 1-1046): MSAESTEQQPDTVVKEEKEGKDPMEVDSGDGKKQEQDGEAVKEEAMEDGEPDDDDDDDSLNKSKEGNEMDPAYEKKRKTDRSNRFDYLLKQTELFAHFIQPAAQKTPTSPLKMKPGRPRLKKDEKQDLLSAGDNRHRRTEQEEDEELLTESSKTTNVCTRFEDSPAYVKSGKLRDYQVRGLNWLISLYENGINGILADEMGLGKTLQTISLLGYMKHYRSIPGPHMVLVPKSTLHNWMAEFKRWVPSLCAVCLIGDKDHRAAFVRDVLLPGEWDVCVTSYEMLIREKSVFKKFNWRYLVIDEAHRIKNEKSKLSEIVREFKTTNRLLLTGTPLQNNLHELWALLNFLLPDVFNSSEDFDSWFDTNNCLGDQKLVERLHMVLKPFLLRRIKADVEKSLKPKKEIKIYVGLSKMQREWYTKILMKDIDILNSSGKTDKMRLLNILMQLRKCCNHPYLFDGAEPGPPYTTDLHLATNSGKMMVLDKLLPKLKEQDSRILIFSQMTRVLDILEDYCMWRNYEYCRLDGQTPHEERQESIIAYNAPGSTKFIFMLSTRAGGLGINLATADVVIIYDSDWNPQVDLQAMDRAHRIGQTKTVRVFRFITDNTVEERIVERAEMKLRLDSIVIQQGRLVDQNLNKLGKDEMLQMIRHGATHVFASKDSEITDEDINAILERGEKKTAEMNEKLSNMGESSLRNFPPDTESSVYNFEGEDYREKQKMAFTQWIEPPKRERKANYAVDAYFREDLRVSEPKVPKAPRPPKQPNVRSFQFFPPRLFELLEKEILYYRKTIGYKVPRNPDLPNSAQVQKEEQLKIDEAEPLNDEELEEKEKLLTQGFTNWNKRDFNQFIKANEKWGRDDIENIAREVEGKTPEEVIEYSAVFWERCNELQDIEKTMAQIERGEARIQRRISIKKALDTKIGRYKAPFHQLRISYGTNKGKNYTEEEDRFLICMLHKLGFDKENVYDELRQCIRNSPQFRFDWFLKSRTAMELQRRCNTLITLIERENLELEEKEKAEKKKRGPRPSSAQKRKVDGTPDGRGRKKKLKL

Kd: 140 ± 30 µM
SMILES: Nc1ncnc2c1ncn2[C@@H]1O[C@H](CO[P@](=O)(O)O[P@](=O)(O)O[P@@](=O)(O)S)[C@@H](O)[C@H]1O [ATP-γ-S]
